Reference: patent US11286263B2, “Macrocyclic fluorine substituted indole derivatives” (The Broad Institute, Inc., priority 2017, dated 2022)
Where two headings read alike, the source gives them in different places.

Assays:
A2780 = assay: Antiproliferation assay A2780 (Assay 7); format: cell-based; details: A2780 cells, CellTiter-Glo, single determinations, read-out: IC50 Antiproli A2780
Outline: (§1)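 A reference plate measured at day 0 set the time-zero baseline. Treated plates were read by CellTiter-Glo luminescence after 72 h of compound exposure at 37°C in a humidified incubator.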

SUDHL5 [1] = assay: Antiproliferation assay SUDHL5 (Assay 7); format: cell-based; details: Homo sapiens, SU-DHL-5, 72 h, SUDHL5 cells, CellTiter-Glo, median, read-out: IC50 Antiproli SUDHL5 [M] (median)
Outline: as §1

SUDHL10 = assay: Induction of caspase-3/7 activity, SUDHL10 (Assay 4); format: cell-based; details: Homo sapiens, SU-DHL10, 3 h, SUDHL10 cells, Caspase-Glo 3/7, median
Outline: (§2)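 DLBCL lines treated with compounds for 3 h at 37° C.; caspase-3/7 activity read by Caspase-Glo 3/7 luminescence. Medium-only background subtracted; EC50 fitted with bottom fixed at 1 and top set to reference compound's maximal induction.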

SUDHL5 [2] = assay: Induction of caspase-3/7 activity, SUDHL5 (Assay 4); format: cell-based; details: Homo sapiens, SU-DHL-5, 3 h, SUDHL5 cells, Caspase-Glo 3/7, median
Outline: as §2

BCL-XL = BCL-XL (Homo sapiens (Human), UniProt Q07817); assay: Protein-protein interaction assay BCL-XL/Bad BH3 peptide (BCL-XL assay), TR-FRET; format: binding; details: median
Method: Assay 2 Protein-Protein Interaction Assay: BCL-XL/Bad BH3 Peptide (BCL-XL Assay)
The dose-dependent inhibition by the compounds described in this invention of the interaction between BCL-XL and the BH3 domain of Bad (both human) was determined using a steady state binding competition assay with time-resolved fluorescence energy transfer (TR-FRET) readout. For that purpose BCL-XL (amino acids 1-212, C-terminal fused to a hexahistidine (6× His) tag (SEQ ID 3) and a synthetic Bad BH3-derived peptide of sequence Biotin-PEG2-PEG2-NLWAAQRYGRELRR-Nle-SDEFVDSFKK-amide (SEQ ID 4) served as protein receptor and tracer ligand respectively. The recombinant BCL-XL protein (expressed in Ecol) was purchased from BPS Bioscience (San Diego, Calif., USA). The Bad BH3-derived peptide can be obtained from e.g. Biosyntan (Berlin, Germany).
In the assay 11 different concentrations of each compound (0.1 nM, 0.33 nM, 1.1 nM, 3.8 nM, 13 nM, 44 nM, 0.15 μM, 0.51 μM, 1.7 μM, 5.9 μM and 20 μM) were typically measured as duplicates in the same microtiter plate. For that, 100-fold concentrated DMSO solutions were prepared by serial dilutions (1:3.4) of a 2 mM stock solution in a clear, 384-well microtiter plate (Greiner Bio-One, Frickenhausen, Germany). From there, 50 nl were transferred in a dark test plate (Greiner Bio-One, Frickenhausen, Germany). The assay was initiated by addition of 2 μl of a 2,5-fold concentrated His-BCL-XL solution (usually for a 1 nM end concentration in 5 μl reaction volume) in aqueous assay buffer [50 mM Tris/HCl pH 7, 100 mM sodium chloride (NaCl), 50 μM potassium fluoride (KF), 0.005% Tween-20, 2 mM DTT, 0.1% bovine gamma globulin (BGG)] to the compounds in the assay plate. This was followed by a 10-minute incubation step at 22° C. for pre-equilibration of the putative complex between His-BCL-XL and the compounds. After that, 3 μl of a 1.67-fold concentrated solution (in assay buffer) consisting of Bad BH3-derived peptide (1 nM end concentration) and TR-FRET detection reagents [1.67 nM anti-His-Eu cryptate and 1.67 nM streptavidin-XL665 (both from Cisbio Bioassays, Codolet, France)], were added.
The mixture was incubated in the dark for one hour at 22° C. and then overnight at 4° C. The formation of BCL-XL/Bad complexes was determined by measuring the resonance energy transfer of the anti-His-Eu-cryptate antibody to the streptavidin-XL665 present in the reaction. For that purpose, the fluorescence emission at 620 nm and 665 nm after excitation at 330-350 nm was measured in a TR-FRET measuring instrument, for instance a Rubystar or a Pherastar (both from BMG Lab Technologies, Offenburg, Germany) or a Viewlux (Perkin-Elmer). The ratio of the emission at 665 nm and at 622 nm was used as indicator of the amount of BCL-XL/Bad complexes present.
The resulting data (ratio) were normalized, taking 0% inhibition as the mean value of control measurements (usually 32 data points) where all reagents were included. In this case 50 nl DMSO were used instead of compounds. A 100% inhibition corresponded to the mean value of control measurements (usually 32 data points) where all reagents except BCL-XL were included. IC50 values were determined by regression analysis based on a 4 parameter equation (minimum, maximum, IC50, Hill; Y=Max+(Min−Max)/(1+(X/IC50)^Hill) using the Screener Software (Genedata).

Sequence of BCL-XL (Q07817 1-212): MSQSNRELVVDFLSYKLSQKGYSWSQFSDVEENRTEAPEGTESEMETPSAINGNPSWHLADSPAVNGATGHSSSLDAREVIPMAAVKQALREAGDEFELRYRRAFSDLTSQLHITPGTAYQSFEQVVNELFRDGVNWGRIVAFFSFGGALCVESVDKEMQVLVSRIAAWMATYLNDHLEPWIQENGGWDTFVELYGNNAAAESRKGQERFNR

Row | SMILES | IC50 (A2780; Homo sapiens, A2780, 72 h) [µM] | IC50 (SUDHL5 [1]) [M] | EC50 (SUDHL10) [µM] | EC50 (SUDHL5 [2]) [µM] | IC50 (BCL-XL) [µM] | IC50 (A2780; 72 h) [µM]
1 | Cc1nn(C)c2c1-c1c(F)ccc3c(CCCOc4cccc5ccccc45)c(C(=O)O)n(c13)CCCCOC2 (racemic) [Example 10, (rac)-13-fluoro-10,12-dimethyl-1-(3-(naphthalen-1-yloxy)propyl)-4,5,6,7,9,10-hexahydro-pyrazolo[4′,3′:9,10][1]oxa[6]azacycloundecino[8,7,6-hi]indole-2-carboxylic acid] | > 33 | 1.8e-06 | 7.8 | 1.7 | > 20 | –
2 | CCc1nn(C)c2c1-c1c(F)ccc3c(CCCOc4cccc5ccccc45)c(C(=O)O)n(c13)C/C=C\COC2 (racemic) [Example 11, (rac)-(Z)-12-ethyl-13-fluoro-10-methyl-1-(3-(naphthalen-1-yloxy)propyl)-4,7,9,10-tetrahydro-pyrazolo[4′,3′:9,10][1]oxa[6]azacycloundecino[8,7,6-hi]indole-2-carboxylic acid] | 15.3 | 2.8e-06 | 6.5 | 2.1 | > 20 | 23.5
3 | Cc1c2c(nn1C)COCCCCn1c(C(=O)O)c(CCCOc3cccc4c3CCC4)c3ccc(F)c-2c31 (racemic) [Example 19, (rac)-1-(3-((2,3-dihydro-1H-inden-4-yl)oxy)propyl)-13-fluoro-11,12-dimethyl-4,5,6,7,9,11-hexahydropyrazolo[4′,3′:9,10][1]oxa[6]azacycloundecino[8,7,6-hi]indole-2-carboxylic acid] | 16.5 | 1e-06 | 3.8 | 0.96 | > 20 | –
4 | CCc1c2c(nn1C)COCCCCn1c(C(=O)O)c(CCCOc3cccc4c3CCCC4)c3ccc(F)c-2c31 (racemic) [Example 29, (rac)-12-ethyl-13-fluoro-11-methyl-1-(3-((5,6,7,8-tetrahydronaphthalen-1-yl)oxy)propyl)-4,5,6,7,9,11-hexahydropyrazolo[4′,3′:9,10][1]oxa[6]azacycloundecino[8,7,6-hi]indole-2-carboxylic acid] | 9.17 | 1.4e-06 | 1.7 | 1.2 | > 20 | –
5 | CCc1c2c(nn1C)COCCCCn1c(C(=O)O)c(CCCOc3cc(C)c(Cl)c(C)c3)c3ccc(F)c-2c31 (racemic) [Example 31, (rac)-1-(3-(4-chloro-3,5-dimethylphenoxy)propyl)-12-ethyl-13-fluoro-11-methyl-4,5,6,7,9,11-hexahydropyrazolo[4′,3′:9,10][1]oxa[6]azacycloundecino[8,7,6-hi]indole-2-carboxylic acid] | 12.1 | 3e-06 | 4.5 | 2.5 | > 20 | –
6 | Cc1nn(C)c2c1-c1c(F)ccc3c(CCCOc4cccc5cc(F)ccc45)c(C(=O)O)n(c13)CCCCOC2 (racemic) [Example 32, (rac)-13-fluoro-1-(3-((6-fluoronaphthalen-1-yl)oxy)propyl)-10,12-dimethyl-4,5,6,7,9,10-hexahydropyrazolo[4′,3′:9,10][1]oxa[6]azacycloundecino[8,7,6-hi]indole-2-carboxylic acid] | 15.2 | 8.5e-07 | 2.6 | 0.8 | > 20 | –
7 | Cc1nn(C)c2c1-c1c(F)ccc3c(CCCOc4ccc(F)c5ccccc45)c(C(=O)O)n(c13)CCCCOC2 (racemic) [Example 33, (rac)-13-fluoro-1-(3-((4-fluoronaphthalen-1-yl)oxy)propyl)-10,12-dimethyl-4,5,6,7,9,10-hexahydropyrazolo[4′,3′:9,10][1]oxa[6]azacycloundecino[8,7,6-hi]indole-2-carboxylic acid] | 23.3 | 3e-06 | 9.1 | 2.9 | > 20 | –
8 | Cc1nn(C)c2c1-c1c(F)ccc3c(CCCOc4cccc5c4CCCC5)c(C(=O)O)n(c13)CCCCOC2 (racemic) [Example 34, (rac)-13-fluoro-10,12-dimethyl-1-(3-((5,6,7,8-tetrahydronaphthalen-1-yl)oxy)propyl)-4,5,6,7,9,10-hexahydropyrazolo[4′,3′:9,10][1]oxa[6]azacycloundecino[8,7,6-hi]indole-2-carboxylic acid] | 20.9 | 1.7e-06 | 5.9 | 1.8 | > 20 | –
9 | Cc1nn(C)c2c1-c1c(F)ccc3c(CCCOc4cccc5c4CCC5)c(C(=O)O)n(c13)CCCCOC2 (racemic) [Example 35, (rac)-1-(3-((2,3-dihydro-1H-inden-4-yl)oxy)propyl)-13-fluoro-10,12-dimethyl-4,5,6,7,9,10-hexahydropyrazolo[4′,3′:9,10][1]oxa[6]azacycloundecino[8,7,6-hi]indole-2-carboxylic acid] | 15 | 6e-06 | 20 | 6.2 | > 20 | –
10 | Cc1cc(OCCCc2c(C(=O)O)n3c4c(c(F)ccc24)-c2c(C)nn(C)c2COCCCC3)cc(C)c1Cl (racemic) [Example 36, (rac)-1-(3-(4-chloro-3,5-dimethylphenoxy)propyl)-13-fluoro-10,12-dimethyl-4,5,6,7,9,10-hexahydropyrazolo[4′,3′:9,10][1]oxa[6]azacycloundecino[8,7,6-hi]indole-2-carboxylic acid] | 29.5 | 3.2e-06 | 12 | 3.5 | > 20 | –
11 | CCc1nn(C)c2c1-c1c(F)ccc3c(CCCOc4cccc5ccccc45)c(C(=O)O)n(c13)CCCCOC2 (racemic) [Example 37, (rac)-12-ethyl-13-fluoro-10-methyl-1-(3-(naphthalen-1-yloxy)propyl)-4,5,6,7,9,10-hexahydro-pyrazolo[4′,3′:9,10][1]oxa[6]azacycloundecino[8,7,6-hi]indole-2-carboxylic acid] | > 33 | 1.6e-06 | 7.2 | 1.7 | > 20 | –
12 | CCc1nn(C)c2c1-c1c(F)ccc3c(CCCOc4cccc5c4CCC5)c(C(=O)O)n(c13)CCCCOC2 (racemic) [Example 45, (rac)-1-(3-((2,3-dihydro-1H-inden-4-yl)oxy)propyl)-12-ethyl-13-fluoro-10-methyl-4,5,6,7,9,10-hexahydropyrazolo[4′,3′:9,10][1]oxa[6]azacycloundecino[8,7,6-hi]indole-2-carboxylic acid] | 28.2 | 1.9e-06 | 6.4 | 1.4 | > 20 | –
